Type in all cases: cell-based
In assay [1] the test system is S. mutans (ATCC 25175). Nature of the assay: Determination of the minimum inhibitory concentration (MIC). The conditions noted are these: Streptococcus mutans, ATCC25175; against S. Mutans. Here is the method: (§1) A colony of bacterium taken from agar plate is inoculated in Brain Hearth Infusion medium (BHI) and grown overnight at 37° C. The next day, the bacteria are diluted in fresh medium containing the phenol red indicator, up to a density of 10^6 bacteria/mL.
(§2) A stock solution of 2 mg/mL of compound is prepared in BHI medium containing phenol red.
(§3) In a 96-well plate, the compound stock solution is diluted serially (the concentration is halved at each step) to obtain the following final concentrations after addition of the bacteria suspension: 1 mg/mL; 0.5 mg/mL; 0.25 mg/mL; 0.125 mg/mL; 0.065 mg/mL; 0.032 mg/mL; 0.016 mg/mL; 0.008 mg/mL; 0.004 mg/mL; 0.002 mg/mL; 0.001 mg/mL. A compound-free medium is used as a growth control. A volume of bacterial suspension equal to 0.5*10^6 bacteria/mL is added to each well containing the compound and the control. The dish is incubated at 37° C. for 24 hours. Bacterial growth in each well is detected by the phenol red, which turns from red to yellow following acidification of the medium induced by bacterial metabolism. The lowest concentration of the compound causing no evident color change corresponds to the MIC.
(§4) In order to test the antibacterial properties of the compounds prepared in Examples 1-8, on colonies of S. mutans (ATCC 25175), a bacterium commonly found in the human oral cavity, a test was set up to determine the minimum inhibitory concentration (MIC) and the minimum bactericidal concentration (MBC) according to the “Determination of minimum inhibitory concentration (MIC)” methods and “Determination of minimum bactericidal concentration (MBC)” described above.

Assay [2] deals with S. mutans (ATCC 25175). The assay can be described thus: Determination of the minimum bactericidal concentration (MBC). To be noted: Streptococcus mutans, ATCC25175; against S. Mutans. The protocol: (§5) A 20 mg/mL compound stock solution in BHI medium is prepared. In a 96-well plate, the compound solution is diluted serially (the concentration is halved at each step) to obtain the following final concentrations after addition of the bacteria suspension: 10 mg/mL; 5 mg/mL; 2.5 mg/mL; 1.25 mg/mL; 0.625 mg/mL; 0.31 mg/mL; 0.15 mg/mL; 0.08 mg/mL; 0.04 mg/mL; 0.02 mg/mL. Wells containing a mixture of penicillin and streptomycin antibiotics are used as a positive control. Compound-free medium is used as a growth control. A volume of bacterial suspension equal to 0.5*10^6 bacteria/mL is added to each well containing the compound and the controls. The dish is incubated at 37° C. for 24 hours. The lowest compound concentration at which no turbidity of the culture medium is evident is defined as MIC. For the calculation of MBC, aliquots equal to 50 μL are taken from the wells showing evident no turbidity of the medium and are plated on BHI agar plates for 48 hours. […] Bacterial suspensions taken from the positive control (growth medium only) and the negative control (growth medium with Ampicilin 100 μg/mL) are also seeded.
as §4

Assay [3] has as its system E. coli (ATCC25922). The description is as above. Here is the method:
as §5
(§6) The compounds according to Examples 1, 3, 5, 6, and 7 were tested on bacterial strains different from S. mutans with the same methods described above, obtaining the MIC and MBC values reported in Table 2.

Assay [4] relates to S. Mitis (ATCC 49456). Described as above. The protocol:
as §5, §6

The subject of assay [5] is S. Sanguis (ATCC 10556). The description is as above. Here is the method:
as §5, §6

The test system of assay [6] is S. Aureus (ATCC 25923). The description is as above. The protocol:
as §5, §6

The subject of another assay is bacteria grown on agar. Nature of the assay: Determination of bacterial inhibition - agar diffusion test of primer formulations. To be noted: for zone of inhibition at 1 % strength: 1% by weight of compound; for zone of inhibition at 5 % strength: 5% by weight of compound; for zone of inhibition at 10 % strength: 10% by weight of compound. An excerpt: A test adapted from a commonly used method for determining the sensitivity of a bacterial strain to antibiotics in solution, known as Kirby-Bauer antibiotic testing or disc diffusion antibiotic sensitivity testing was used (Brown D F, Kothari D (1975), “Comparison of antibiotic discs from different sources”, J. Clin. Pathol. 28 (10): 779-83. Doi: 10.1136 /jcp.28.10.779). The test performed involves the use of discs imbued with a known concentration of the substance under examination that are placed on a layer of bacteria grown on agar. The diffusion of the bactericidal molecule from the disk into the agar causes the inhibition of bacterial growth in the area surrounding the disk itself where the molecule has spread with the formation of what are called zones of growth inhibition. The diameter of these inhibition zones (transparent circular regions in comparison to the bacterial film) is proportional to the antibacterial efficacy of the molecule to its concentration and to its diffusion ability in the medium.
The bactericidal properties of the compounds according to Examples 1, 3, 5, 6 and 7 were tested in various primer-type preparations, using the method “Bacterial inhibition determination-Agar diffusion test” described above. The disk soaked in the tested primer formulation without addition of compounds according to Examples 1, 3, 5, 6 and 7 was used as a negative reference.
For the tests, the following primer-type formulations were used, identified by the following codes: […]

Assay [7] concerns E. coli (ATCC25922). The assay can be described thus: Determination of the minimum inhibitory concentration (MIC). The conditions noted are these: Escherichia coli. Here is the method:
as §1, §2, §3, §6

In assay [8] the test system is S. Mitis (ATCC 49456). The assay is described as above. The conditions noted are these: Streptococcus mitis, ATCC49456. Here is the method:
as §1, §2, §3, §6

In assay [9] the test system is S. Sanguis (ATCC 10556). The description is as above. The protocol: as §1, §2, §3, §6
For assay [10], the system named is S. Aureus (ATCC 25923). The description is as above. To be noted: Staphylococcus aureus, ATCC25923. Here is the method:
as §1, §2, §3, §6

As a reminder, the MIC is the lowest concentration found to suppress growth. A low value points to inhibition by little substance. The MBC is the lowest tested concentration that kills the bacteria rather than only halting them. Read a low MBC as greater bactericidal potency. What is called zone of inhibition is the size of the clear area around the sample on an inoculated plate. A higher zone of inhibition goes with wide suppression of growth.

For the compound `C=C(C)C(=O)OCC[N+](C)(C)Cc1ccc(C[N+](C)(C)CCOC(=O)C(=C)C)cc1.[Br-].[Br-]` [Example 8], in the assay with S. mutans (ATCC 25175) [1], the minimal inhibitory concentration (MIC) worked out at 2500 µg/mL. The compound also yielded an MBC against S. mutans (ATCC 25175) [2] of 2500 µg/mL.

For the compound `C=C(C)C(=O)NCCC[N+](C)(C)CCCCCCCCCCCC[N+](C)(C)CCCNC(=O)C(=C)C.[F-].[F-]` [Example 4], inhibition of growth against S. mutans (ATCC 25175) [1] (MIC) required 156 µg/mL. For the same compound, the MBC against S. mutans (ATCC 25175) [2] amounted to 156 µg/mL.

The compound `C=C(C)C(=O)OCC[N+](C)(C)CCCCCCCCCCCC[N+](C)(C)CCOC(=O)C(=C)C` [Example 2] gave an MIC against S. mutans (ATCC 25175) [1] of 156 µg/mL. The minimal bactericidal concentration (MBC) against S. mutans (ATCC 25175) [2] was determined as 313 µg/mL.

`C=C(C)C(=O)NCCC[N+](C)(C)CCCCCCCCCCCC[N+](C)(C)CCCNC(=O)C(=C)C.[Br-].[Br-]` [Example 3]: the MCB is listed as 1.25 mg/mL with E. coli (ATCC25922) [3], 0.62 mg/mL with S. Mitis (ATCC 49456) [4], 0.62 mg/mL in the assay on S. Sanguis (ATCC 10556) [5] and 1.25 mg/mL in the assay with S. Aureus (ATCC 25923) [6]. Also, the MIC against S. mutans (ATCC 25175) [1] worked out at 150 µg/mL; against E. coli (ATCC25922) [7], 1250 µg/mL; in the assay with S. Mitis (ATCC 49456) [8] it was 620 µg/mL; against S. Sanguis (ATCC 10556) [9] it was 620 µg/mL; against S. Aureus (ATCC 25923) [10], 625 µg/mL. For the same compound, the zone of inhibition at 1 % strength in the assay on bacteria grown on agar (primer L1A) amounted to 8 mm; in the assay with bacteria grown on agar (primer L1B), 0 mm; in the assay on bacteria grown on agar (primer L2A), 6 mm; in the assay with bacteria grown on agar (primer L2B), 6 mm; in the assay with bacteria grown on agar (primer R5A) it was 6 mm; with bacteria grown on agar (primer R5B), 0 mm. For the same compound, the zone of inhibition at 5 % strength was found to be 11 mm in the assay with bacteria grown on agar (primer L1A); 7 mm in the assay on bacteria grown on agar (primer L1B); 7 mm in the assay on bacteria grown on agar (primer L2A); 7 mm in the assay with bacteria grown on agar (primer L2B); 6 mm in the assay on bacteria grown on agar (primer R5A); 0 mm in the assay on bacteria grown on agar (primer R5B). Moreover, the zone of inhibition at 10 % strength in the assay on bacteria grown on agar (primer L1A) came to 13 mm; in the assay on bacteria grown on agar (primer L1B), 10 mm; in the assay with bacteria grown on agar (primer L2A) it was 10 mm; with bacteria grown on agar (primer L2B), 10 mm; in the assay on bacteria grown on agar (primer R5A), 8 mm; in the assay with bacteria grown on agar (primer R5B), 8 mm. The compound also displayed a minimum bactericidal concentration (MBC) in the assay on S. mutans (ATCC 25175) [2] of 310 µg/mL.

Source of the values: patent publication US20220402872A1, “PHOTOPOLYMERIZABLE ANTIBACTERIAL MONOMER” (UNIVERSITA' DEGLI STUDI DI TRIESTE, priority 2019, published 2022).
